Experiment [1] concerns S. aureus ATCC 29213. The experiment in a line: Drug interaction of 22 with FDA-approved drugs, checkerboard method. Format: cell-based, Staphylococcus aureus. Conditions: for MIC of drug in the presence of “22” “B”: S. aureus ATCC 29213, checkerboard, in combination with 22; for MIC: Staphylococcus aureus, ATCC29213, 24 h, read-out: MIC (drug alone); for Inference (drug interaction): combination of 22 with the drug, S. aureus ATCC 29213.

A further experiment concerns E. coli ATCC 25922. Description: MIC by broth microdilution against E. coli ATCC 25922. Format: cell-based. Conditions: Escherichia coli, ATCC25922, read-out: MIC against E. coli ATCC 25922.
In experiment [2] the test system is S. aureus ATCC 29213. The experiment in a line: MIC by broth microdilution against S. aureus ATCC 29213. Format: cell-based, Staphylococcus aureus. The note with it: for MIC: Staphylococcus aureus, ATCC29213, read-out: MIC against S. aureus ATCC 29213, broth microdilution, 37 °C, 16–18 h; for MIC against S. aureus ATCC 29213: broth microdilution, 37 °C, 16–18 h.

A further experiment concerns K. pneumoniae BAA 1705. Description: MIC by broth microdilution against K. pneumoniae BAA 1705. The note with it: Klebsiella pneumoniae, BAA1705, read-out: MIC against K. pneumoniae BAA 1705. Format: cell-based.
A further experiment relates to A. baumannii BAA 1605. The experiment in a line: MIC by broth microdilution against A. baumannii BAA 1605. The class given is cell-based. Conditions: Acinetobacter baumannii, BAA1605, read-out: MIC against A. baumannii BAA 1605.

≈ marks a conversion by molar mass, not a printed value.

With `CC(C)(O/N=C(\C(=O)N[C@@H]1C(=O)N2C(C(=O)[O-])=C(C[n+]3ccccc3)CS[C@H]12)c1csc(N)n1)C(=O)O` [Ceftazidime], in the experiment with S. aureus ATCC 29213 [1], the “MIC of drug in the presence of “22” “B”” value amounted to 16 µg/mL, the MIC amounted to 16 µg/mL and the “Inference (drug interaction)” value is listed as “No interaction”.
With `O=C(Nc1ccccc1)c1ccccc1` [Compound 3, N-phenylbenzamide], the MIC with E. coli ATCC 25922, in the experiment on S. aureus ATCC 29213 [2], in the experiment with K. pneumoniae BAA 1705 and with A. baumannii BAA 1605 was above 64 µg/mL each time.
For `O=C(Nc1ccccc1)c1cccc(Cl)c1` [Compound 4, N-(phenyl)-3-chlorobenzamide], the MIC in the experiment with E. coli ATCC 25922, with S. aureus ATCC 29213 [2], in the experiment on K. pneumoniae BAA 1705 and with A. baumannii BAA 1605 was above 64 µg/mL in each case.
`O=C(Nc1ccccc1)c1ccccc1O` [Compound 5, N-(phenyl)-2-hydroxybenzamide]: the MIC with E. coli ATCC 25922 is above 64 µg/mL; in the experiment on S. aureus ATCC 29213 [2], 64 µg/mL (≈ 300 µM); in the experiment on K. pneumoniae BAA 1705, above 64 µg/mL; in the experiment on A. baumannii BAA 1605, above 64 µg/mL.
On to `O=C(Nc1ccccc1)c1cc(Cl)ccc1O` [Compound 6, 5-Chloro-N-(phenyl)-2-hydroxy-benzamide], for which the MIC with E. coli ATCC 25922 is above 64 µg/mL; in the experiment on S. aureus ATCC 29213 [2] it was 8 µg/mL (≈ 32.3 µM); with K. pneumoniae BAA 1705, above 64 µg/mL; in the experiment on A. baumannii BAA 1605 it was above 64 µg/mL.
Take `O=C(Nc1ccc(F)cc1)c1ccccc1O` [Compound 7, N-(4ʹ-fluorophenyl)-2-hydroxybenzamide]: the MIC with E. coli ATCC 25922, in the experiment on K. pneumoniae BAA 1705 and in the experiment with A. baumannii BAA 1605 was above 64 µg/mL throughout.
With `O=C(Nc1ccc(F)cc1)c1cc(Cl)ccc1O` [Compound 8, 5-Chloro-N-(4ʹ-fluorophenyl)-2-hydroxybenzamide], the MIC in the experiment with E. coli ATCC 25922 is above 64 µg/mL; in the experiment with S. aureus ATCC 29213 [2] it was 2 µg/mL (≈ 7.53 µM); in the experiment with K. pneumoniae BAA 1705, above 64 µg/mL; with A. baumannii BAA 1605, above 64 µg/mL.
`O=C(Nc1ccccc1F)c1ccccc1O` [Compound 9, N-(2ʹ-fluorophenyl)-2-hydroxybenzamide]: the MIC in the experiment with E. coli ATCC 25922, in the experiment with K. pneumoniae BAA 1705 and in the experiment with A. baumannii BAA 1605 was above 64 µg/mL throughout.
For the compound `O=C(Nc1ccccc1F)c1cc(Cl)ccc1O` [Compound 10, 5-Chloro-N-(2ʹ-fluorophenyl)-2-hydroxybenzamide], the MIC in the experiment on E. coli ATCC 25922 is above 64 µg/mL; in the experiment on S. aureus ATCC 29213 [2], 4 µg/mL (≈ 15.1 µM); in the experiment with K. pneumoniae BAA 1705, above 64 µg/mL; with A. baumannii BAA 1605, above 64 µg/mL.
Turning to `O=C(Nc1ccc(F)c(F)c1)c1ccccc1O` [Compound 11, N-(3ʹ,4ʹ-difluorophenyl)-2-hydroxybenzamide], the MIC in the experiment with E. coli ATCC 25922, in the experiment on K. pneumoniae BAA 1705 and in the experiment on A. baumannii BAA 1605 was above 64 µg/mL throughout.
As for `O=C(Nc1ccc(F)c(F)c1)c1cc(Cl)ccc1O` [Compound 12, 5-Chloro-N-(3ʹ,4ʹ-difluorophenyl)-2-hydroxybenzamide], the MIC with E. coli ATCC 25922, with K. pneumoniae BAA 1705 and in the experiment on A. baumannii BAA 1605 was above 64 µg/mL throughout. Also, the “MIC against S. aureus ATCC 29213” value in the experiment with S. aureus ATCC 29213 [2] was 0.5 µg/mL (≈ 1.76 µM).
Regarding `O=C(Nc1ccc(F)c(Cl)c1)c1ccccc1O` [Compound 13, N-(3ʹ-chloro-4ʹ-fluorophenyl)-2-hydroxybenzamide], the MIC was above 64 µg/mL in the experiment with E. coli ATCC 25922, 4 µg/mL (≈ 15.1 µM) with S. aureus ATCC 29213 [2], above 64 µg/mL in the experiment with K. pneumoniae BAA 1705 and above 64 µg/mL in the experiment on A. baumannii BAA 1605.
Take `O=C(Nc1ccc(F)c(Cl)c1)c1cc(Cl)ccc1O` [Compound 14, 5-Chloro-N-(3ʹ-chloro-4ʹ-fluorophenyl)-2-hydroxybenzamide]: the MIC in the experiment with S. aureus ATCC 29213 [2] is 0.5 µg/mL (≈ 1.67 µM).
As to `O=C(Nc1ccc(F)cc1[N+](=O)[O-])c1ccccc1O` [Compound 15, N-(4ʹ-fluoro-2ʹ-nitrophenyl)-2-hydroxybenzamide], the MIC in the experiment on E. coli ATCC 25922 is above 64 µg/mL; in the experiment with S. aureus ATCC 29213 [2] it was 32 µg/mL (≈ 116 µM); in the experiment on K. pneumoniae BAA 1705 it was above 64 µg/mL; in the experiment on A. baumannii BAA 1605 it was above 64 µg/mL.
On to `O=C(Nc1ccc(F)cc1[N+](=O)[O-])c1cc(Cl)ccc1O` [Compound 16, 5-Chloro-N-(4ʹ-fluoro-2ʹ-nitrophenyl)-2-hydroxybenzamide], for which the MIC is above 64 µg/mL in the experiment on E. coli ATCC 25922, 3.88 µg/mL (≈ 12.5 µM) with S. aureus ATCC 29213 [2], above 64 µg/mL in the experiment with K. pneumoniae BAA 1705 and above 64 µg/mL with A. baumannii BAA 1605. In the experiment on S. aureus ATCC 29213 [2], the “MIC against S. aureus ATCC 29213” value is 4 µg/mL (≈ 12.9 µM).
On to `O=C(Nc1ccc([N+](=O)[O-])cc1F)c1ccccc1O` [Compound 17, N-(2ʹ-fluoro-4ʹ-nitrophenyl)-2-hydroxybenzamide], for which, in the experiment on S. aureus ATCC 29213 [2], the MIC was 2 µg/mL (≈ 7.24 µM).
Consider `O=C(Nc1ccc([N+](=O)[O-])cc1F)c1cc(Cl)ccc1O` [Compound 18, 5-Chloro-N-(2ʹ-fluoro-4ʹ-nitrophenyl)-2-hydroxybenzamide], for which the MIC in the experiment on E. coli ATCC 25922 is above 64 µg/mL; with S. aureus ATCC 29213 [2], 1 µg/mL (≈ 3.22 µM); in the experiment with K. pneumoniae BAA 1705, above 64 µg/mL; with A. baumannii BAA 1605 it was above 64 µg/mL.
As to `O=C(Nc1ccc(Cl)c(C(F)(F)F)c1)c1ccccc1O` [Compound 19, N-(4ʹ-chloro-3ʹ-(trifluoromethyl)phenyl)-2-hydroxybenzamide], the MIC was above 64 µg/mL with E. coli ATCC 25922, 1 µg/mL (≈ 3.17 µM) with S. aureus ATCC 29213 [2], above 64 µg/mL in the experiment with K. pneumoniae BAA 1705 and above 64 µg/mL in the experiment on A. baumannii BAA 1605.
Take `CCCCCCCCCC(=O)N[C@@H](Cc1c[nH]c2ccccc12)C(=O)N[C@H](CC(N)=O)C(=O)N[C@@H](CC(=O)O)C(=O)N[C@@H]1C(=O)NCC(=O)N[C@@H](CCCN)C(=O)N[C@@H](CC(=O)O)C(=O)N[C@H](C)C(=O)N[C@@H](CC(=O)O)C(=O)NCC(=O)N[C@H](CO)C(=O)N[C@@H]([C@H](C)CC(=O)O)C(=O)N[C@@H](CC(=O)c2ccccc2N)C(=O)O[C@@H]1C` [Daptomycin]: in the experiment on S. aureus ATCC 29213 [1], the “MIC of drug in the presence of “22” “B”” value came to 1 µg/mL, the MIC worked out at 1 µg/mL and the “Inference (drug interaction)” value is reported as “No interaction”.
Take `CNC(C)C1CCC(N)C(OC2C(N)CC(N)C(OC3OCC(C)(O)C(NC)C3O)C2O)O1` (stereo not shown) [Gentamicin]: in the experiment on S. aureus ATCC 29213 [1], the “MIC of drug in the presence of “22” “B”” value is 0.25 µg/mL, the MIC came to 0.5 µg/mL and the “Inference (drug interaction)” value was “No interaction”.
The corresponding values for `CC(=O)NC[C@H]1CN(c2ccc(N3CCOCC3)c(F)c2)C(=O)O1` [Linezolid] are 0.5 µg/mL, 2 µg/mL and “No interaction”.
The like results for `CN(C)c1ccc(O)c2c1C[C@H]1C[C@H]3[C@H](N(C)C)C(O)=C(C(N)=O)C(=O)[C@@]3(O)C(O)=C1C2=O` [Minocycline] were, in that order, 0.125 µg/mL, 0.125 µg/mL and “No interaction”.
Turning to `CO[C@H]1/C=C/O[C@@]2(C)Oc3c(C)c(O)c4c(O)c(c(/C=N/N5CCN(C)CC5)c(O)c4c3C2=O)NC(=O)/C(C)=C\C=C\[C@H](C)[C@H](O)[C@@H](C)[C@@H](O)[C@@H](C)[C@H](OC(C)=O)[C@@H]1C` [Rifampicin], the “Inference (drug interaction)” value in the experiment with S. aureus ATCC 29213 [1] was “No interaction”.

Source of the values: PMC8548355 (Medicinal Chemistry Research, 2021).
